Here are results for one molecule from article PMC3433414, “Oral Administration of the Pimelic Diphenylamide HDAC Inhibitor HDACi 4b Is Unsuitable for Chronic Inhibition of HDAC Activity in the CNS In Vivo” (PLoS ONE, 2012).

One experiment has as its target T1, HDAC7 (Homo sapiens, UniProt Q8WUI4).
T1 construct: HDAC7 (αα 518-end; cat # 50007); purchased BPS Bioscience (San Diego, CA) 50007
The experiment in a line: Two-step fluorogenic deacetylase assay, recombinant HDAC7. Format: biochemical. The note with it: up to 50 µM. From the text:
(§1) To assess the biochemical and cellular potency of 4b and its conversion products/metabolites, we utilized the two-step fluorogenic assay which measures the HDAC-mediated catalytic conversion of synthetic acetylated lysine substrates. In brief, on deacetylation of the substrates by HDAC activity, a protease site is unmasked which allows subsequent trypsin-mediated cleavage and release of the highly flourescent AMC molecules in a subsequent step of the assay. The substrates used were Lys_Ac_AMC (Bachem I-1875) for HDAC3 and (Ac)Arg-Gly-Lys(Ac) (Bachem I-1925) for HDAC1 and HDAC2. […] However, the relatively labile and sterically more demanding trifluoracetyl group is readily hydrolyzed by the catalytically less avid Class IIa enzymes, allowing measurement of Class IIa activity using the 2-step fluorogenic assay. […]
(§2) For evaluation of the class selectivity of the compounds, we assessed inhibition against purified recombinant human full length HDAC1 (cat# 50051), HDAC2 (cat# 50052), HDAC3-NcoR2 (cat# 50003) and HDAC8 (cat# 50008): as representative of Class I activity; catalytic domain HDAC4(αα 648–1057), HDAC5 (αα 657–1123; cat # 50005), HDAC7 (αα 518-end; cat # 50007) and HDAC9 (αα 604–1066; cat # 50009) activity: representing all Class IIa activity; and full length HDAC6 (cat#50006): representing Class IIb activity. […]

A further experiment concerns the target T2, HDAC6 (Homo sapiens, UniProt Q9UBN7).
T2 construct: full length HDAC6 (cat#50006); purchased BPS Bioscience (San Diego, CA) 50006
The experiment in a line: Two-step fluorogenic deacetylase assay, recombinant HDAC6. The note with it: up to 50 µM. Format: biochemical.
Text: as §1, §2

Another experiment has as its system R6/2^300Q mice. Also noted: method as in PMID 18829438. The settings on record: cited from earlier work.
Experiment [1] has as its system histone acetylation in mouse brain. Nature of the experiment: Histone acetylation in brain tissue (central pharmacodynamics). The settings on record: 150 mg/kg po bid, five consecutive days; 1 h post last dose.
Procedure: Cortical tissue from the mice was assessed using specific antibodies for increases in acetylation of specific lysine residues on Histones H3 (H3K4, H3K9, H3K14) and H4 (H4K5) as well as global acetylation of H3 (Ac-H3) and H4 (Ac-H4). The acetylation level was normalized to total H3 and H4 expression level. The samples from the rest of the brain were analyzed for terminal 4b levels at the time of sacrifice. […] Mouse brains were harvested, dissected, immediately frozen in liquid nitrogen and stored at −80°C. Mouse brain tissue was homogenized (polytron homogenizer, 20 s) in 2 volumes of histone extraction buffer (1×PBS, 5% Triton X-100 (v/v), 3 mM DTT, 1 mM orthovanadate, 5 mM NaF, 1 mM PMSF, 5 mM Na Butyrate, Roche complete protease inhibitor tablet) and centrifuged at 900 g for 8 min at 4°C. The resulting pellet was washed twice in 1 ml of histone extraction buffer before being re-suspended in 2–3 volumes of 0.2 M HCl. Samples were then vortexed briefly and left to shake vigorously for 3 h at 4°C using a VXR Vibrax 1.5 ml polypropylene tube shaker (IKA). After shaking, samples were centrifuged at 900 g for 8 min at 4°C and the resulting supernatant was retained and neutralized with 0.2 volumes of 1 M NaOH.
Another experiment deals with T3, HDAC3-NcoR2 (Homo sapiens, UniProt O15379).
T3 construct: purified recombinant human full length HDAC1 (cat# 50051), HDAC2 (cat# 50052), HDAC3-NcoR2 (cat# 50003); purchased BPS Bioscience (San Diego, CA) 50003
T3 sequence (O15379 whole entry): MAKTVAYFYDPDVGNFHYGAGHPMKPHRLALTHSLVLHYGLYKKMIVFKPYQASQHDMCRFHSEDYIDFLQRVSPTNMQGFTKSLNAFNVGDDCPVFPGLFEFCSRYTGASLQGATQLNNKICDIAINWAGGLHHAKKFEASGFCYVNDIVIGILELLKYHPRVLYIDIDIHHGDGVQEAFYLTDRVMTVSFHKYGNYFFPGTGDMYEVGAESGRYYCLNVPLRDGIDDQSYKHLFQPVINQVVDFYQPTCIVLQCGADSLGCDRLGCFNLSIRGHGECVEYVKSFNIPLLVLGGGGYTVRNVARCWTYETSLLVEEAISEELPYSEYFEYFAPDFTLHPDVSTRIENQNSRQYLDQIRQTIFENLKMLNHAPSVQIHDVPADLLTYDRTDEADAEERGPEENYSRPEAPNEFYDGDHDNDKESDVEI
T3 sequence (Q9Y618 395-489 partner limits assumed): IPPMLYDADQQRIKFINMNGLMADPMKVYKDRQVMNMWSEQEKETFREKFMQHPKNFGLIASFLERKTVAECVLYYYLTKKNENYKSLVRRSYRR
Nature of the experiment: Two-step fluorogenic deacetylase assay, recombinant HDAC3. Format: biochemical. The method, then: As described, the length of compound-enzyme incubation has been reported to be critical for this class of HDAC inhibitors, where a unique time-dependent increase in affinity and subsequent potency has been observed [36]–[38]. […] To better mimic physiological conditions, our experiments were performed at 37°C as opposed to room temperature as reported in previous studies. […] To confirm that this shift was independent of the time of 4b in aqueous solution, 4b was applied immediately to the enzyme-substrate mix both after preparing in aqueous buffer, and 120 min after preparation.
To assess the biochemical and cellular potency of 4b and its conversion products/metabolites, we utilized the two-step fluorogenic assay which measures the HDAC-mediated catalytic conversion of synthetic acetylated lysine substrates. In brief, on deacetylation of the substrates by HDAC activity, a protease site is unmasked which allows subsequent trypsin-mediated cleavage and release of the highly flourescent AMC molecules in a subsequent step of the assay. The substrates used were Lys_Ac_AMC (Bachem I-1875) for HDAC3 and (Ac)Arg-Gly-Lys(Ac) (Bachem I-1925) for HDAC1 and HDAC2. The final substrates used for each enzyme assessment were carefully selected after assessing the catalytic turnover of each of these substrates against HDAC1, HDAC2 and HDAC3 respectively, and selecting the ones that performed best. To assess Class IIa enzyme activity (HDAC4, 5, 7, 9) and Class I HDAC8 activity, we used the alternative substrate Boc_Lys_TFA (Bachem I-1985), equivalent to substrate 4 of [42]. Class IIa HDACs have approximately 1000-fold less catalytic activity than Class 1 enzymes, and show only extremely low turnover of acetylated substrates due to a Tyr to His mutation in the active site. However, the relatively labile and sterically more demanding trifluoracetyl group is readily hydrolyzed by the catalytically less avid Class IIa enzymes, allowing measurement of Class IIa activity using the 2-step fluorogenic assay. Intriguingly the Boc_Lys_TFA substrate seems to show almost total selectivity for Class IIa enzymes over class I and Class IIb enzymes, with the exception of HDAC8 ([42], and internal data).
For evaluation of the class selectivity of the compounds, we assessed inhibition against purified recombinant human full length HDAC1 (cat# 50051), HDAC2 (cat# 50052), HDAC3-NcoR2 (cat# 50003) and HDAC8 (cat# 50008): as representative of Class I activity; catalytic domain HDAC4(αα 648–1057), HDAC5 (αα 657–1123; cat # 50005), HDAC7 (αα 518-end; cat # 50007) and HDAC9 (αα 604–1066; cat # 50009) activity: representing all Class IIa activity; and full length HDAC6 (cat#50006): representing Class IIb activity. With the exception of purified catalytic domain HDAC4, which was prepared for us by Emerald Biosciences (Seattle, WA), all HDAC enzymes were purchased from BPS Bioscience (San Diego, CA).
Unless otherwise stated in the text, assays were run in the following format in 384-well plates using automated liquid handling procedures. Briefly, frozen enzyme stock and compounds were diluted in assay buffer (50 mM Tris-HCl, 137 mM NaCl, 2.7 mM KCl, 1 mM MgCl2 at pH 8.0) and added to plates at concentrations sufficient to achieve a 16-point concentration-response curve from 50 µM to 1 nM at 1% DMSO final concentration, after addition of all reagents. Substrate diluted in assay buffer was then added and plates were incubated after brief shaking for 60 min at 37°C. Following incubation, a developer/stop-step was introduced to terminate the reaction and cleave the fluorescent substrate: either the addition of trypsin with 10 µM Compound 26 [44] for the Class IIa enzymes, or trypsin with 5 µM Trichostatin A (TSA) for the Class I/IIb enzymes. Plates were briefly shaken and then returned to the incubator for a further 60 min, followed by measurement of fluorescence per well (Ex 355 nm, Em 460 nm) on a Perkin Elmer EnVision. […]

Each structure is given as a SMILES string.

T1 sequence (Q8WUI4 518-952 limits assumed): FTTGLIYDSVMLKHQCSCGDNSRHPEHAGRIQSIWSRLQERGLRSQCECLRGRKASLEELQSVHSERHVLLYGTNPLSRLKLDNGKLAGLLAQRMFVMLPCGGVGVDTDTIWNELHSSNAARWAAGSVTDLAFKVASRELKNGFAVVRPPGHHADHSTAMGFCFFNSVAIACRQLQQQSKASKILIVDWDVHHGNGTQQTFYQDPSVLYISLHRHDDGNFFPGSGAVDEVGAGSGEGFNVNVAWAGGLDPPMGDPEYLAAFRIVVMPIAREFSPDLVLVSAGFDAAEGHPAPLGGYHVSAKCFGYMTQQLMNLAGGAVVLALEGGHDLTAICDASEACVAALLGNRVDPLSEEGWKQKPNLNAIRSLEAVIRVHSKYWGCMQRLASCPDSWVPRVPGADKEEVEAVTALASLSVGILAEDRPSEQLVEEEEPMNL
T2 sequence (Q9UBN7 whole entry): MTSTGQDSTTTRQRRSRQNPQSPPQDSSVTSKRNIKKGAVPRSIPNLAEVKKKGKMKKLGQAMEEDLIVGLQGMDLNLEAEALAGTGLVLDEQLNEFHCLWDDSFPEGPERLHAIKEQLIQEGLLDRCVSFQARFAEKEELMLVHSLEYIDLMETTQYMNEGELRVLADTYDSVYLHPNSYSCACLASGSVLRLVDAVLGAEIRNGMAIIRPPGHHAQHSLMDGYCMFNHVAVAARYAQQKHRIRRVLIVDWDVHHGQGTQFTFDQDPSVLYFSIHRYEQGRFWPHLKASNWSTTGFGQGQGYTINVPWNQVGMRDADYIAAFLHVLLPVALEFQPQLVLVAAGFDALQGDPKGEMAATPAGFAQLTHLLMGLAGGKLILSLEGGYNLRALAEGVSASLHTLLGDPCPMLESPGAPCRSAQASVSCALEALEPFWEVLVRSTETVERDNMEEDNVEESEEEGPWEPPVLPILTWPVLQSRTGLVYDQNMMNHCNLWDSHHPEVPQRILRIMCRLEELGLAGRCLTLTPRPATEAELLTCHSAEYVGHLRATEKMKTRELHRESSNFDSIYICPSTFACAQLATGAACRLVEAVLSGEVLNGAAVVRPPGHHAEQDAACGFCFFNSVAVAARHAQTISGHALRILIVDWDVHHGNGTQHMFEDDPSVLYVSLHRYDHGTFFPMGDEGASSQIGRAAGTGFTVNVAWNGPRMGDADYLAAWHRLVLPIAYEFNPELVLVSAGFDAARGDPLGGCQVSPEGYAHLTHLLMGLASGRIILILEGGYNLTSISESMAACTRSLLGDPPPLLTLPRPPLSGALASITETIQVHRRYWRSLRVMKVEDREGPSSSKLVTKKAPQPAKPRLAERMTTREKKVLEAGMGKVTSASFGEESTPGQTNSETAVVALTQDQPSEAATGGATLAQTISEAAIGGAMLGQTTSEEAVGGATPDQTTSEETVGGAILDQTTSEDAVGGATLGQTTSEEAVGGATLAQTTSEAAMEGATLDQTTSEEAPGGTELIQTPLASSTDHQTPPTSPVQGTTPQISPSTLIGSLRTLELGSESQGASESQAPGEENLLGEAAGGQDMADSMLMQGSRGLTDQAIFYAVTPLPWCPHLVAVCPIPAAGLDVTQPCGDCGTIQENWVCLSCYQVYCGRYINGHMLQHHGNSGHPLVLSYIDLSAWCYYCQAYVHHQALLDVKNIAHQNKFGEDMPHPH

A word on the IC50: it is the concentration that gives 50% inhibition. Turning to `Nc1ccccc1NC(=O)CCCCCC(=O)Nc1ccccc1` [Compound 4b], at HDAC7, the “activity against HDAC7” value is reported as “No activity”. The “activity against HDAC6” value at HDAC6 is recorded as “No activity”. Further, the gene expression abnormalities entry in the experiment on R6/2^300Q mice (150 mg/kg subcutaneous once daily for 3 days) is on record as “successfully ameliorated gene expression abnormalities”. Also, the “motor performance and appearance in chronic efficacy study” value with R6/2^300Q mice (drinking water, estimated 150 mg/kg/day, from 4 months of age) is on record as “improved motor performance”. Also, the “histone acetylation in cortical tissue (H3K4, H3K9, H3K14, H4K5, Ac-H3, Ac-H4)” value in experiment [1] was “failed to enhance histone acetylation”. The “selectivity for HDAC3 over HDAC2” value at HDAC3-NcoR2 was roughly 9 fold. For the same molecule, the IC50 on HDAC3-NcoR2 (0 min pre-incubation with enzyme, then 60 min substrate, 37°C) worked out at 0.65 µM; on HDAC3-NcoR2 (2 h pre-incubation with enzyme (3 h incubation in total), 37°C), 0.08 µM; at HDAC3-NcoR2 (no enzyme pre-incubation, applied 120 min after preparation in aqueous buffer), 0.65 µM; at HDAC3-NcoR2 (no enzyme pre-incubation, applied immediately after preparing in aqueous buffer), 0.97 µM; at HDAC3-NcoR2 (standard screening format, free base, DMSO stock) it was 0.254 µM. In addition, on HDAC3-NcoR2 (standard screening format), the “selectivity within the Class I enzymes for HDAC3” value is roughly 6 fold.
